Five compounds from patent publication US8207157B2, “Methods and compositions for repelling arthropods” (The United States of America, as represented by the …, priority 2006, dated 2012) can be followed below.

In one test the test system is female Ae. aegypti. Kind of test: Competitive (two-port) olfactometer bioassay of attractants and inhibitors. The format is in vivo, Aedes aegypti. The source says: Mosquitoes choose to fly upwind into a port with the treatment or choose to remain in the cage. It is clear that in competition, these mosquitoes preferred the natural human odors over the blend by about a 5:1 margin.

The test system of test [1] is Anopheles albimanus mosquitoes. The description is as above. The format is in vivo. Particulars: competing port: B + (1-MPZ) + (4-MM).
Test [2] relates to female Aedes aegypti mosquitoes. Briefly: Non-competitive olfactometer bioassay of absolute attraction to attractants with or without candidate inhibitors. Format: in vivo. The conditions noted are these: for Attraction Mean ± SE (%): 50 μL heterocycle combined with 500 μL 3-compound attractant blend, line Blend = attractant alone; for Attraction with 50 μL 1-MPZ mean ± SE (%): 3 min.

With `CN1CCOCC1` [4-MM, 4-methylmorpholine], the “Attraction mean ± SE (%), Treatment 2” value in the test with female Ae. aegypti (port: B + (4-MM), competing port: B + (1-MPZ)) is on record as 8.0 ± 1.1%; in the test on female Ae. aegypti (port: B + (4-MM), competing port: B + (1-MPZ) + (4-MM)), 5.1 ± 1.8%; in test [1] (port: B + (4-MM)), 5.2 ± 2.0%.
Turning to `C1CNCCN1` [piperazine], the “Attraction Mean ± SE (%)” value in test [2] turned out to be 41.4%.
`OCCN1CCN(CCO)CC1` [1,4-bis(2-hydroxyethyl)piperazine]: in test [2] (listed as 1,4-bis (2-hydroxyethyl)piperazine-2,2′-1,4-diyldiethanol), the “Attraction Mean ± SE (%)” value was determined as 73%.
Take `CN1CCNCC1` [1-MPZ, 1-methylpiperazine]: the “Attraction with 50 μL 1-MPZ mean ± SE (%)” value was 12.8 ± 1.8% in test [2] (attractant: 1 mL 3-compound blend) and 23.5 ± 3.0% in test [2] (attractant: human arm/hand odor). Moreover, in the test on female Ae. aegypti (both ports: Human + 1-MPZ (50 μL) vs Blend, 97.2% without 1-MPZ), the “Total Catch (%)” value worked out at 78.1%. Besides, the “Attraction mean ± SE (%), Treatment 1” value with female Ae. aegypti (port: B + (1-MPZ), competing port: B + (1-M-4-OPZ)) was determined as 4.6 ± 1.5%; with female Ae. aegypti (port: B + (1-MPZ), competing port: B + (4-MM)) it was 5.4 ± 1.3%. Also, the “Attraction mean ± SE (%), Treatment 2” value in the test with female Ae. aegypti (port: B + (1-MPZ), competing port: B + (1-MPZ) + (4-MM)) amounted to 5.1 ± 1.1%; in test [1] (port: B + (1-MPZ)) it was 9.7 ± 3.3%. The “Attraction mean ± SE (%), Treatment with Inhibitor” value in the test with female Ae. aegypti (port: Blend + inhibitor (50 μL each), competing port: Blend) came to 3.4 ± 1.0%; with female Ae. aegypti (port: Blend + inhibitor (50 μL each), competing port: RH odors), 0.9 ± 0.3%; in the test on female Ae. aegypti (port: RH odors + inhibitor (50 μL each), competing port: Blend) it was 14.1 ± 2.7%; in the test on female Ae. aegypti (port: RH odors + inhibitor (50 μL each), competing port: LH odors) it was 7.7 ± 1.2%. In the test with female Ae. aegypti (port: human odor + 50 μL 1-MPZ, competing port: Blend), the “Attraction ± SE (%), Treatment 1 port” value turned out to be 29.5 ± 3.2%.
For the compound `CCCCCCCCN1CCN(C)CC1` [1M-4-OPZ, 1-methyl-4-octylpiperazine], the “Attraction mean ± SE (%), Treatment 2” value in the test with female Ae. aegypti (port: B + (1-M-4-OPZ), competing port: B + (1-MPZ)) worked out at 24.5 ± 4.4%.
